As a reminder, the IC50 is the concentration that gives 50% inhibition. A higher IC50 goes with a need for much substance. For orientation: solubility means the dissolved amount per volume that the medium holds. A high value points to much dissolved substance.

One series deals with T1, acid ceramidase (Homo sapiens, UniProt Q13510).
T1 construct: Cell lysates overexpressing acid ceramidase were used as the enzyme source; expressed in transfected cells
T1 sequence (Q13510 22-395): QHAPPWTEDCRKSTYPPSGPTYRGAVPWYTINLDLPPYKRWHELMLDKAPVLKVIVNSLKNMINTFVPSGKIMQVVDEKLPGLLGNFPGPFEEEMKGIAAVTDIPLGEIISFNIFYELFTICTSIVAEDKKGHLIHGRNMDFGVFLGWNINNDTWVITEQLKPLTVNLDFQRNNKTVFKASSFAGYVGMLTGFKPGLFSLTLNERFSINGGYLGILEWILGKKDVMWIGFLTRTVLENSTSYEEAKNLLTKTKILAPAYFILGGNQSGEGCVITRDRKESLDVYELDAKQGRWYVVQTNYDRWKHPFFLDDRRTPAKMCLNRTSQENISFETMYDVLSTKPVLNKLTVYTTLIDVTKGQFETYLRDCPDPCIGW
The series is described as follows: Acid ceramidase inhibition, biochemical fluorescent assay with cell lysates overexpressing acid ceramidase, substrate Rbm14-12. The settings on record: substrate Rbm14-12 6.3 μM. The procedure, abridged: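 Lysate of cells overexpressing acid ceramidase (10 μg protein) preincubated with compound dose series 1 hr at RT in 25 mM NaAC, 100 mM NaCl, pH 4.5, then reacted 1 hr with 6.3 μM Rbm14-12. Stopped with NaIO4/glycine buffer pH 10.6, fluorescence ex360/em446; IC50 by four-parameter fit.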

Series [1] is described as follows: Compound solubility in water.
The mark [2] stands for this setting: pH 4.5, 1 hr preincubation at RT.

In brackets after ≈: the same amount, converted by molar mass. Where only a bound is given, the exact number is not on record here.

For `CC(C)CCNC(=O)n1cnc2c(N3C[C@@H](C)O[C@@H](C)C3)cccc21` [Example 167, 4-((2S,6R)-2,6-Dimethylmorpholino)-N-iso-pentyl-1H-benzo[d]imidazole-1-carboxamide], the IC50 against acid ceramidase (pH 4.5) lay in the range of 200 to 1000 nM. Moreover, the concentration in solution in series [1] (solubility) came to 4 µg/mL (≈ 11.6 µM).
On the same counts, the results for `COc1nc2cc(N3CCN(C)CC3)ccc2n1C(=O)NCCCc1ccccc1` [Example 194, 2-Methoxy-5-(4-methylpiperazin-1-yl)-N-(3-phenylpropyl)-1H-benzo[d]imidazole-1-carboxamide] are 200 to 1000 nM and 30 µg/mL (≈ 73.6 µM).
For `CC(C)CCNC(=O)n1cnc2c(C3CCN(C)CC3)cccc21` [Example 182, N-iso-Pentyl-4-(1-methylpiperidin-4-yl)-1H-benzo[d]imidazole-1-carboxamide] the same measures were 200 to 1000 nM and 32 µg/mL (≈ 97.4 µM).
Consider `CCCCNC(=O)n1cnc2ccc(N3CCC(N4CCN(C)CC4)CC3)cc21` [Example 102a, N-Butyl-6-(4-(4-methylpiperazin-1-yl)piperidin-1-yl)-1H-benzo[d]imidazole-1-carboxamide], for which the IC50 on acid ceramidase (setting [2]) is under 200 nM. Besides, the concentration in solution in series [1] (solubility) came to 34.8 µg/mL (≈ 87.3 µM).
For the compound `CCOc1nc2c(Cl)cccc2n1C(=O)NCCc1ccccc1` [Example 93, 4-Chloro-2-ethoxy-N-phenethyl-1H-benzo[d]imidazole-1-carboxamide], the IC50 at acid ceramidase (setting [2]) was under 200 nM. Also, the solubility in series [1] is 0.05 µg/mL (≈ 0.145 µM).
In turn, `CC(C)CCNC(=O)n1cnc2c(N3CC4CC3CN4C)cccc21` (stereo not shown) [Example 159, N-iso-Pentyl-4-(5-methyl-2,5-diazabicyclo[2.2.1]heptan-2-yl)-1H-benzo[d]imidazole-1-carboxamide] gave a half-maximal inhibitory concentration (IC50) against acid ceramidase (setting [2]) of 200 to 1000 nM. The compound further displayed a solubility in series [1] of 33 µg/mL (≈ 96.6 µM).
On to `CN1CCN(c2cccc3c2ncn3C(=O)NCCC#Cc2ccccc2)CC1` [Example 352, 4-(4-Methylpiperazin-1-yl)-N-(4-phenylbut-3-yn-1-yl)-1H-benzo[d]imidazole-1-carboxamide], for which the IC50 on acid ceramidase (setting [2]) was under 200 nM. The solubility in series [1] was 2 µg/mL (≈ 5.16 µM).
At acid ceramidase (setting [2]), `Cn1c(=O)n(C(=O)NCCc2ccccc2)c2ncccc21` [Example 88, 1-Methyl-2-oxo-N-phenethyl-1,2-dihydro-3H-imidazo[4,5-b]pyridine-3-carboxamide] registered an IC50 of under 200 nM. For the same compound, the concentration in solution in series [1] (solubility) came to 26.4 µg/mL (≈ 89.1 µM).
`CN1CCN(c2ccc3c(c2)ncn3C(=O)NCCc2ccccc2)CC1` [Example 15a, 5-(4-Methylpiperazin-1-yl)-N-phenethyl-1H-benzo[d]imidazole-1-carboxamide]: the IC50 against acid ceramidase (setting [2]) is under 200 nM. In series [1], this compound returned a solubility of 20.4 µg/mL (≈ 56.1 µM).
In turn, `N#Cc1cccc2c1ncn2C(=O)NCCOc1ccccc1` [Example 74, 4-Cyano-N-(2-phenoxyethyl)-1H-benzo[d]imidazole-1-carboxamide] returned an IC50 against acid ceramidase (setting [2]) of under 200 nM. This compound also gave a solubility in series [1] of 5.9 µg/mL (≈ 19.3 µM).
The compound `O=C(NCCc1ccccc1)n1cnc2ncc(C(F)(F)F)cc21` [Example 53, N-Phenethyl-6-(trifluoromethyl)-1H-imidazo[4,5-b]pyridine-1-carboxamide] had an IC50 at acid ceramidase (setting [2]) of under 200 nM. Further, in series [1], the solubility was 4.7 µg/mL (≈ 14.1 µM).
As for `CC(C)CCNC(=O)n1cnc2c(N3CCO[C@@H](Cc4ccccc4)C3)cccc21` [Example 174, (S)-4-(2-Benzylmorpholino)-N-iso-pentyl-1H-benzo[d]imidazole-1-carboxamide], the IC50 at acid ceramidase (pH 4.5) fell in the range of 200 to 1000 nM. The compound also came in with a solubility in series [1] of 1 µg/mL (≈ 2.46 µM).
As for `COc1cccc2c1ncn2C(=O)NCCOc1ccccc1` [Example 71, 4-Methoxy-N-(2-phenoxyethyl)-1H-benzo[d]imidazole-1-carboxamide], the IC50 against acid ceramidase (setting [2]) is under 200 nM. In addition, in series [1], the solubility was 9.1 µg/mL (≈ 29.2 µM).
As for `C[C@@H]1CN(c2cccc3c2ncn3C(=O)NCCCc2ccccc2)C[C@H](C)O1` [Example 219, 4-((2S,6R)-2,6-Dimethylmorpholino)-N-(3-phenylpropyl)-1H-benzo[d]imidazole-1-carboxamide], at acid ceramidase (pH 4.5), the IC50 was under 200 nM. Besides, the solubility in series [1] is 0.5 µg/mL (≈ 1.27 µM).

For the origin of these results see patent US20220380319A1 (Bial - R&D Investments, S.A., priority 2019, published 2022).
